We go through 8 compounds from ChEMBL document CHEMBL5338752, “Carbamate JNK3 Inhibitors Show Promise as Effective Treatments for Alzheimer's Disease: In Vivo Studies on Mouse Models” (J Med Chem, 2023).

Data set [1] has as its target Mitogen-activated protein kinase 8 (Homo sapiens, UniProt P45983). Description: Inhibition of JNK1 (unknown origin) using ATF2 as substrate incubated for 40 mins in presence of [gamma33P]ATP by scintillation counting analysis.
Data set [2] is described as follows: Effective permeability of compound by […] method. The format is ADME. The conditions noted are these: read-out: Peff. On the technique in general: In PAMPA a lipid-coated filter parts donor from acceptor wells.
Data set [3] in a line: AUC in sixteen hrs fasted Sprague-Dawley rat at 1 mg/kg, iv measured upto 24 hrs by LC-MS/MS analysis. The format is ADME, organism-based. Set-up: time < 24 hrs, dose 1 mg/kg, route iv. The settings on record: in vivo.
Data set [4] in a line: Cmax in sixteen hrs fasted Sprague-Dawley rat at 1 mg/kg, iv measured upto 24 hrs by LC-MS/MS analysis. The conditions noted are these: in vivo. The class given is ADME, organism-based. The arrangement: dose 1 mg/kg, time < 24 hrs, route iv.
Data set [5] has as its target Mitogen-activated protein kinase 9 (Homo sapiens, UniProt P45984). Description: Inhibition of JNK2 (unknown origin) using ATF2 as substrate incubated for 40 mins in presence of [gamma33P]ATP by scintillation counting analysis.
Data set [6] deals with Neuron. Description: Neuroprotective activity against rat neuron cells assessed as inhibition of Abeta(1-42)-induced cytotoxicity by measuring increase in cell viability at 20 uM incubated for 24 hrs by MTT assay relative to control. The format is functional.
Data set [7] relates to Neuron. Description: Neuroprotective activity against rat neuron cells assessed as inhibition of Abeta(1-42)-induced cytotoxicity by measuring increase in cell viability at 20 uM incubated for 48 hrs by MTT assay relative to control. The format is functional.
Data set [8] is described as follows: AUC in sixteen hrs fasted Sprague-Dawley rat at 3 mg/kg, po measured upto 24 hrs by LC-MS/MS analysis. The format is ADME, organism-based. Set-up: time < 24 hrs, dose 3 mg/kg, route po. The settings on record: in vivo.
Data set [9] can be described thus: Cmax in sixteen hrs fasted Sprague-Dawley rat at 3 mg/kg, po measured upto 24 hrs by LC-MS/MS analysis. The class given is ADME, organism-based. The arrangement: time < 24 hrs, dose 3 mg/kg, route po. The conditions noted are these: in vivo.
Data set [10] in a line: Apparent permeability of the compound across apical side to basolateral side in human Caco-2 cells. The format is ADME, cell-based. A general note: Caco-2 cells form a polarised layer with tight junctions and transporters.
The test system of data set [11] is Mus musculus. Briefly: Anti-alzheimer activity against APP/PS1 dE9 double transgenic mouse model assessed as time spent in target zone at 60 mg/kg, po administered daily for 2 months and measured after 74 days by Morris water maze test (reference value: 10.56+/-1.59 %). The class given is functional. The conditions noted are these: time 74 day.
The test system of data set [12] is Mus musculus. Briefly: Anti-alzheimer activity against APP/PS1 dE9 double transgenic mouse model assessed as spontaneous alteration at 60 mg/kg, po administered daily for 2 months and measured after 57 days by Y-maze test (reference value: 45.69+/-2.33%). The format is functional. The settings on record: time 57 day.
Data set [13] in a line: Apparent permeability of the compound across basolateral side to apical side in human Caco-2 cells. The format is ADME, cell-based.
Data set [14] concerns Mus musculus. Briefly: Anti-alzheimer activity against APP/PS1 dE9 double transgenic mouse model assessed as escape latency time at 60 mg/kg, po administered daily for 2 months and measured after 60 days by Passive avoidance test (reference value: 55.3+/-8.2 sec). The format is functional. The settings on record: time 60 day.
Data set [15] concerns Mus musculus. Description: Anti-alzheimer activity against APP/PS1 dE9 double transgenic mouse model assessed as time spent in target zone at 30 mg/kg, po administered daily for 2 months and measured after 74 days by Morris water maze test (reference value: 10.56+/-1.59 %). The class given is functional. The conditions noted are these: time 74 day.
The subject of data set [16] is Mus musculus. Briefly: Anti-alzheimer activity against APP/PS1 dE9 double transgenic mouse model assessed as escape latency time at 30 mg/kg, po administered daily for 2 months and measured after 60 days by Passive avoidance test (reference value: 55.3+/-8.2 sec). The conditions noted are these: time 60 day. The format is functional.
Data set [17] is described as follows: Half life in sixteen hrs fasted Sprague-Dawley rat at 3 mg/kg, po measured upto 24 hrs by LC-MS/MS analysis. The class given is ADME, organism-based. The settings on record: in vivo.
The subject of data set [18] is Mus musculus. Briefly: Anti-alzheimer activity against APP/PS1 dE9 double transgenic mouse model assessed as spontaneous alteration at 30 mg/kg, po administered daily for 2 months and measured after 57 days by Y-maze test (reference value: 45.69+/-2.33%). The class given is functional. The conditions noted are these: time 57 day.
Data set [19] concerns the target Mitogen-activated protein kinase 10 (Homo sapiens, UniProt P53779). Description: Inhibition of JNK3 (unknown origin) using ATF2 as substrate incubated for 40 mins in presence of [gamma33P]ATP by scintillation counting analysis.
The nature of data set [20]: AUClast in sixteen hrs fasted Sprague-Dawley rat at 3 mg/kg, po measured upto 24 hrs by LC-MS/MS analysis. The class given is ADME, organism-based. The arrangement: dose 3 mg/kg, time < 24 hrs, route po. The settings on record: in vivo.
Data set [21] is described as follows: Efflux ratio of apparent permeability across basolateral to apical side to apical to basolateral side in human Caco-2 cells. The format is ADME, cell-based.
Data set [22] can be described thus: Tmax in sixteen hrs fasted Sprague-Dawley rat at 3 mg/kg, po measured upto 24 hrs by LC-MS/MS analysis. The format is ADME, organism-based. The conditions noted are these: in vivo.
Data set [23] relates to Mus musculus. Description: Anti-alzheimer activity against APP/PS1 dE9 double transgenic mouse model assessed as time spent in platform quadrant at 60 mg/kg, po administered daily for 2 months and measured after 74 days by Morris water maze test (reference value: 14.40+/-1.60 %). The conditions noted are these: time 74 day. The format is functional.
The test system of data set [24] is Mus musculus. Briefly: Anti-alzheimer activity against APP/PS1 dE9 double transgenic mouse model assessed as time spent in platform quadrant at 30 mg/kg, po administered daily for 2 months and measured after 74 days by Morris water maze test (reference value: 14.40+/-1.60 %). The class given is functional. The settings on record: time 74 day.
Data set [25] has as its system Neuron. Description: Inhibition of apoptosis in rat cortex neuron cells assessed as prevention of A-beta (1 to 42) induced cleaved PARP formation at 10 to 20 uM measured after 24 hrs by Western blot analysis. The settings on record: dose 10-20 µM. The class given is functional, cell-based.
Data set [26] concerns the target Mitogen-activated protein kinase 10 (Rattus norvegicus) (UniProt P49187). Briefly: Inhibition of A-beta (1 to 42) induced JNK3 activation in rat cortex neuron cells assessed as reduction in c-Jun phosphorylation levels at 10 to 20 uM incubated for 24 hrs in presence of A-beta (1 to 42) by Western blot analysis. The conditions noted are these: dose 10-20 µM. The format is cell-based. A general note: Immunoblotting shows a protein as a band on a membrane.

For data set [27] the target is unchanged. Description: Inhibition of anisomycin induced JNK3 activation in rat cortex neuron cells assessed as reduction in Jun phosphorylation levels at 10 to 20 uM preincubated for 90 mins followed by anisomycin addition and measured after 40 mins by Western blot analysis. The format is cell-based. The conditions noted are these: dose 10-20 µM, time 130.0 min.

The target is the same in data set [28]. Description: Inhibition of anisomycin induced JNK3 activation in rat cortex neuron cells assessed as inhibition of APP phosphorylation at 10 to 20 uM preincubated for 90 mins followed by anisomycin addition and measured after 40 mins by Western blot analysis. The class given is cell-based. The settings on record: dose 10-20 µM.
For data set [29], the system named is Neuron. Description: Inhibition of apoptosis in rat cortex neuron cells assessed as prevention of A-beta (1 to 42) induced cleaved caspase-3 formation at 10 to 20 uM measured after 24 hrs by Western blot analysis. The class given is functional, cell-based. The settings on record: dose 10-20 µM.

Structures are written as SMILES. The source made the active and inactive calls. No cut-off for these calls is given here.

Sequence of Mitogen-activated protein kinase 8 (P45983 whole entry): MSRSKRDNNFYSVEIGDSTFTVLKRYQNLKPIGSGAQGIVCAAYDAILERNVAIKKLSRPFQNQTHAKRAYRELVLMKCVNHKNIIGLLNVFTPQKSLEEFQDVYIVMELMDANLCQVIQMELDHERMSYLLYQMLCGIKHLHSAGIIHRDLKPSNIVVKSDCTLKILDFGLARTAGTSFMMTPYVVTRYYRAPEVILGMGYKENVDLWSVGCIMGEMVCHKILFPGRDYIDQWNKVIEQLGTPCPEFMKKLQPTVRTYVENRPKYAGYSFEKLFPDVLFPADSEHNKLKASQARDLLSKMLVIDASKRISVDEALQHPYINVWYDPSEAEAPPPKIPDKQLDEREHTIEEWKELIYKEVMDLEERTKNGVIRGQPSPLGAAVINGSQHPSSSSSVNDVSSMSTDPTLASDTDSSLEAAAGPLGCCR
Sequence of Mitogen-activated protein kinase 10 (Rattus norvegicus) (P49187 whole entry): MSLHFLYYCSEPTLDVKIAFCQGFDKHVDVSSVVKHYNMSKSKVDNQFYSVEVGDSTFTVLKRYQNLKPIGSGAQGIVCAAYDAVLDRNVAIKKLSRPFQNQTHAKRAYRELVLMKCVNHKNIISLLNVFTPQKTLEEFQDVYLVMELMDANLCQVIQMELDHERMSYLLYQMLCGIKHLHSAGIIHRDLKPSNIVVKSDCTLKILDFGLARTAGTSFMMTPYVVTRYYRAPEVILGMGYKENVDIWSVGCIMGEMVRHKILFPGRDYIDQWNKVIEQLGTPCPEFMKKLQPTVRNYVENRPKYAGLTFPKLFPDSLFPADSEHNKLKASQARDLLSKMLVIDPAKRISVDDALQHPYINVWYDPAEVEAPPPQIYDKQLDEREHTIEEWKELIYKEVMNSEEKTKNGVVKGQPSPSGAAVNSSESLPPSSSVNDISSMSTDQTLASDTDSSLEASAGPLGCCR
Sequence of Mitogen-activated protein kinase 9 (P45984 whole entry): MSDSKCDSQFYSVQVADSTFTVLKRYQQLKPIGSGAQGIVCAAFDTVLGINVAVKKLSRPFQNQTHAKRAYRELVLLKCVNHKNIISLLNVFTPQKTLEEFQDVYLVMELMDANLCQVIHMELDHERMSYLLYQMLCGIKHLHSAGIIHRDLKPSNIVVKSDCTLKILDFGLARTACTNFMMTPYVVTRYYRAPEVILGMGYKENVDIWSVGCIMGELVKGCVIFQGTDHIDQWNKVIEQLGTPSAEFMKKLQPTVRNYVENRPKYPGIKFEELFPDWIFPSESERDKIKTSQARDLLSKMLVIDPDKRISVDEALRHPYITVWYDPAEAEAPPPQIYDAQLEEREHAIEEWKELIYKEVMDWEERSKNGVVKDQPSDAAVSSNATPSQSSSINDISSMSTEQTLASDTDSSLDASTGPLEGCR
Sequence of Mitogen-activated protein kinase 10 (P53779 whole entry): as the sequence (P49187 whole entry) above, with H27Q, S32Y, V33I, V34A counted along it

For the compound `O=C(C1CC1)N1CCC[C@H](Nc2nccc(-n3c(-c4ccc5ccccc5c4)nc4ccc(O)cc43)n2)C1`, the half-inhibitory concentration (IC50) amounted to 0.301 µM in data set [1] and 0.125 µM in [5]. In addition, the Papp in data set [2] worked out at 35.1 ×10⁻⁶ cm/s. This compound also displayed an exposure (AUC) at 24 h in [3] of 349 ng·h/mL. The compound further showed a Cmax in data set [4] of 1510 ng/mL. Also, the Activity was 41.2% in the data set on Neuron [6] and 21.8% in the data set with Neuron [7].
`CN(C)C(=O)Oc1ccc2nc(-c3ccc4ccccc4c3)n(-c3ccnc(N[C@H]4CCCN(C(=O)C5CC5)C4)n3)c2c1` returned an exposure (AUC) at 24 h in data set [8] of 554 ng·h/mL. The same compound had a peak concentration (Cmax) in [9] of 483 ng/mL.
The corresponding values for `NC(=O)Oc1ccc2nc(-c3ccc4ccccc4c3)n(-c3ccnc(N[C@H]4CCCN(C(=O)C5CC5)C4)n3)c2c1` are 345 ng·h/mL and 277 ng/mL.
The corresponding values for `CCNC(=O)Oc1ccc2nc(-c3ccc4ccccc4c3)n(-c3ccnc(N[C@H]4CCCN(C(=O)C5CC5)C4)n3)c2c1` are 260 ng·h/mL and 253 ng/mL.
On to `CNC(=O)Oc1ccc2nc(-c3ccc4ccccc4c3)n(-c3ccnc(N[C@H]4CCCN(C(=O)C5CC5)C4)n3)c2c1`, for which the AUC at 24 h in data set [8] worked out at 351 ng·h/mL. The concentration for half-maximal inhibition (IC50) in data set [1] is 1.04 µM; in [5], 0.973 µM; in data set [19] it was 0.053 µM. Also, the Papp in data set [2] came out at 67.2 ×10⁻⁶ cm/s. Moreover, the apical-to-basolateral permeability (Papp A→B) in data set [10] worked out at 4.9 ×10⁻⁶ cm/s. Further, the Activity in the data set with Mus musculus [11] was determined as 16.42%; in the data set on Mus musculus [12], 53.46%; with Mus musculus [15] it was 12.57%; in the data set on Mus musculus [18] it was 52.7%; in the data set with Neuron [6] it was 34.8%; in the data set on Neuron [7], 17.2%. Also, the Activity came out at 21.12% in the data set on Mus musculus [23] and 16.84% with Mus musculus [24]. In addition, in data set [13], the Papp B→A was found to be 11.3 ×10⁻⁶ cm/s. The Time was found to be 59.3 s in the data set on Mus musculus [14] and 61.6 s in the data set on Mus musculus [16]. Besides, the half-life in [17] is 39 min. Further, the highest level in data set [9] (Cmax) was 342 ng/mL. Besides, the AUC(0-t) at 24 h in data set [20] was determined as 351 ng·h/mL. Besides, the efflux ratio in data set [21] was 2.31. For the same compound, the time to peak (Tmax) in data set [22] came to 23.4 min.
As for `CC(=O)[C@H]1CC[C@H]2[C@@H]3CCC4=CC(=O)CC[C@]4(C)[C@H]3CC[C@]12C` [PROGESTERONE], the Papp in data set [2] worked out at 26.5 ×10⁻⁶ cm/s.
On to `N#CCc1cnc(-c2ccc3ccccc3c2)n1-c1ccnc(N[C@H]2CCCN(C(=O)C3CC3)C2)n1`, for which the AUC at 24 h in [8] was 392 ng·h/mL; in data set [3] it was 614 ng·h/mL. The same compound had a Cmax in [4] of 1120 ng/mL. Moreover, the Activity with Neuron [6] amounted to 14.1%.
For `O=C(C1CC1)N1CCC[C@H](Nc2nccc(-n3c(-c4ccc5ccccc5c4)nc4c(F)cc(O)cc43)n2)C1`, the results for the IC50 in data set [1], in [5] and in data set [19] were 0.705 µM, 0.151 µM and 0.01 µM, respectively. For the same compound, the Papp in [2] was determined as 22.9 ×10⁻⁶ cm/s. The inhibition entry (in the data set on Neuron [25]; in [26]; in [27]; in data set [28]; with Neuron [29]) was “Active” in each case. Also, the Cmax in [9] is 423 ng/mL. The Activity with Neuron [6] is reported as 59.5%; with Neuron [7], 35.2%.

Broadly, the IC50 is the concentration that gives 50% inhibition. By AUC is commonly meant the area under the concentration-time curve, a measure of exposure. The low end stands for less exposure, the high end for more exposure. The Cmax is the highest concentration seen after dosing. The term Papp A→B denotes the apparent permeability from the apical to the basolateral side of a cell layer. What is called Papp B→A is the apparent permeability from the basolateral to the apical side of a cell layer. Usually half-life stands for how long it takes for the measured level to halve. Read a low half-life as rapid decline. One may read the AUC(0-t) as exposure summed from dosing to a finite time, without extrapolation to infinity. Read a high AUC(0-t) as more exposure. A word on the efflux ratio: it is a quotient of directional permeabilities that is used to spot active efflux. A word on the Tmax: it is the time from dosing to the highest level.
